Measurements published in US11939377B2, “Affinity matured CD22-specific monoclonal antibody and uses thereof” (The U.S.A., as represented by the Secretary, Department of …, priority 2018, dated 2024).

Experiments:
[1] = test system: CD22^lo or Nalm6 leukemia; experiment: CAR T cell persistence and phenotype by flow cytometry in leukemia-bearing mice; type: in vivo, NSG mice
Procedure: FIGS. 9A-9F: (FIGS. 9A-9B) A total of 1×10^5 tumor cells were co-cultured with 1×10^5 mock, CD22, or […] CAR and assessed for IFNγ and IL2 cytokines by ELISA from cell culture supernatants (statistics were calculated using paired t test (*, P<0.0332); FIG. 9A) or Annexin V staining was assessed over time using IncuCyte ZOOM (FIG. 9B). […] (FIG. 9C) NSG mice were injected with 1×10^6 GPF-positive CD22^neg, CD22^lo, or Nalm6 tumor cells on day 0. On day 3, 5×10^6 CD22 or CD22^V1 CAR were injected for treatment. Mice were imaged using IVIS technology and luciferin-D intraperitoneal injections. Luminescence quantification is shown on the right. […] (FIG. 9D) CD22 or CD22^V1 CART were co-incubated with tumor cells. On days 1 and 8, CAR was harvested, stained for flow cytometry, and analyzed on Fortessa flow machine. Statistics were calculated using unpaired t test (*, P<0.0332). (FIGS. 9E-9F) Mice were injected with CD22^lo or Nalm6 leukemia on day 0. […] Bone marrow cells were stained for flow cytometry and analyzed on Fortessa flow machine. Statistics were calculated using unpaired t test (****, P<0.0001; *, P<0.0332).
FIGS. 13A-13F: (FIG. 13A) BIAcore analysis was used to evaluate association and dissociation curves of various scFvs. Note: The calculated dissociation rate constant kd (1.1×10^−6 l/s) is lower than the kd which can be measured by the BIAcore X-100 used here (1.0×10^−5 l/s). […] (FIG. 13B) CD22^V1 or CD22 CART were co-cultured with CD22^neg or CD22^lo leukemia and evaluated at 24 hours for PD1 expression through flow cytometry on a Fortessa flow machine. […] Bone marrow cells were stained for flow cytometry and analyzed on Fortessa flow machine. Statistics were calculated using unpaired t-test (** p<0.0021).
CD22-CAR functionality and anti-leukemic efficacy were evaluated in vivo in Nalm6 xenograft or PDX models with NOD.Cg-Prkdcscid Il2rgtm1Wjl/SzJ (NSG) mice (The Jackson Laboratory and bred in-house) ages 6-10 weeks. […] On day 3, mice received CD22-CAR-transduced T cells or mock-transduced T cells intravenously at the indicated quantity. […]

[2] = test system: Nalm6, Nalm6 CRISPR variant, SEM or PDX leukemia; experiment: Nalm6 / SEM xenograft and PDX in vivo studies (IVIS luminescence); parameters: species or system NSG mice
[3] = test system: Nalm6 leukemia cells; experiment: CD22 expression on Nalm6 in NSG mice after a single dose of Bryostatin 1; type: in vivo; settings: single dose I.P.
Procedure: FIGS. 3A-3D: (FIG. 3A) Four cell lines (Nalm6, Kopn8, Pfieffer and Toldeo) were co-incubated with 1 ng/ml Bryostatin 1 for 24 hours and analyzed using flow cytometry one day after Bryostatin 1 exposure. Site density was analyzed using standardized Quantibrite-PE beads. (FIG. 3B) Cell lines were co-incubated with 1 ng/ml Bryostatin 1 for 24 hours, washed, and analyzed using flow cytometry at 1 and 7 days after Bryostatin 1 exposure. Fold change was calculated based on site density: (Cell line Bryostatin 1—Cell line DMSO)/Cell line DMSO. (FIG. 3C) NSG mice were injected with 1×10^6 GPF-positive Nalm6 leukemia cells on Day 0. Bryostatin 1 was administered at 0.8 μg/kg on Day 3. Mice were sacrificed 7 and 12 days after Bryostatin 1 injection and CD22 was evaluated by flow cytometry. (FIG. 3D) CD22-low relapse PDX cell line was cultured in vitro with 1 nmol/L Bryostatin 1 for 24 hours and measured for CD22 expression using CD22 antibody. […]
FACS analysis of cell surface CAR and protein expression was performed using an LSR II Fortessa flow cytometer (BD Biosciences). CD22-CAR was detected by incubation with 22-Fc (R&D Systems), followed by incubation with human IgG-specific PE-F(ab)2 (Thermo Fisher Scientific). […] CD22 site density was determined using QuantiBrite-PE beads (BD Biosciences) using methods previously described (Jasper et al., Cytometry B Clin Cytom 80(2):83-90, 2011). […]

## CCC/C=C/C=C/C(=O)O[C@H]1/C(=C/C(=O)OC)C[C@H]2C[C@H]([C@@H](C)O)OC(=O)C[C@H](O)C[C@@H]3C[C@H](OC(C)=O)C(C)(C)[C@](O)(C[C@@H]4C/C(=C/C(=O)OC)C[C@H](/C=C/C(C)(C)[C@]1(O)O2)O4)O3 [Bryostatin 1]
[1]; 30 days, drug 40 μg/kg once weekly for 2 weeks after CART
  CD22 CART in bone marrow: slightly increased
[1]; Nalm6 pretreated with drug, seven days after CD22 CAR injection
  central memory and effector memory cells within CD8+ CART population, spleen: significant cumulative enrichment
[1]; with Bryostatin 1 exposure
  CART activation/exhaustion markers (PD1, TIM3, LAG3): stable PD1 expression, without increase in TIM3 or LAGS
[2]; Nalm6 and SEM, 40 μg/kg once weekly for 2 weeks
  durability of remission after subcurative dose of CD22 CART: improved durability of remission
[2]; SEM, 40 μg/kg once weekly for 2 weeks
  efficacy of the CD19 CAR in vivo: did not reduce efficacy
[2]; once weekly for 2 weeks after CD22 CART
  ability of CD22-CAR to attenuate progression of CD22^lo leukemia in vivo: did not impact
[3]; 1 week
  CD22 MFI on Nalm6 in vivo: increased
[3]; 12 days post-drug administration
  CD22 expression on Nalm6 in vivo: return to baseline expression
